Results published in PubChem BioAssay (NCI).
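The compound was tested at five concentrations on cells cultured in 96-well plates, with a 48-hour exposure period. The concentration for full growth arrest is given as TGI.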 Where a SMILES comes first, the peptide text is derived from it. [ ]: non-standard residue; d: D form. The star is where a group is joined. ξ: configuration not given here. ξD = NC(CC(=O)O)C(=O)O; Boc = CC(C)(C)OC(=O)*; Aib = CC(C)(N)C(=O)O; OBn = c1ccc(CO*)cc1

Experiments:
Experiment in all cases: NCI tumour cell line growth inhibition, 48 h
[1] = test system: SF-295 CNS
[2] = test system: COLO 205 colon
[3] = test system: TK-10 renal
[4] = test system: OVCAR-5 ovarian
[5] = test system: T-47D breast
[6] = test system: SK-MEL-2 melanoma
[7] = test system: HT29 colon
[8] = test system: MALME-3M melanoma
[9] = test system: HS 578T breast
[10] = test system: HL-60(TB) leukemia
[11] = test system: NCI/ADR-RES ovarian
[12] = test system: OVCAR-3 ovarian
[13] = test system: NCI-H226 lung
[14] = test system: SNB-75 CNS
[15] = test system: RXF 393 renal
[16] = test system: NCI-H23 lung
[17] = test system: A498 renal

SMILES	TGI [1]	TGI [2]	TGI [3]	TGI [4]	TGI [5]	TGI [6]	TGI [7]	TGI [8]	TGI [9]	TGI [10]	TGI [11]	TGI [12]	TGI [13]	TGI [14]	TGI [15]	TGI [16]	TGI [17]
O=c1[nH]c2nc3ccccc3c(=O)n2/c1=C/c1ccccc1	> 100 µM	> 100 µM	> 100 µM	> 100 µM	> 100 µM	> 100 µM	39.1 µM	> 100 µM	> 100 µM	> 100 µM	> 100 µM	> 100 µM	> 100 µM	99.4 µM	> 100 µM	> 100 µM	
CCC1C(NC(=O)OC)C(=O)N1[C@@H](C)c1ccccc1 (some centres not stated)	> 100 µM	> 100 µM	> 100 µM	> 100 µM	> 100 µM	> 100 µM	> 100 µM	> 100 µM	> 100 µM		> 100 µM	> 100 µM	> 100 µM	> 100 µM	> 100 µM	> 100 µM	> 100 µM
O=C1N[C@H]2C(=O)c3c(Br)sc(Br)c3[C@H]2O1	37 µM	8.17 µM	41 µM	34.3 µM	55 µM	31.9 µM	6.59 µM	11.3 µM	58.6 µM		39 µM	17 µM	34.6 µM	31.4 µM	10.4 µM	17.7 µM	33.2 µM
O=S(Cc1ccccc1)c1ccccc1Cn1cccc1 (configuration not stated)	> 100 µM	> 100 µM	> 100 µM	> 100 µM	> 100 µM	> 100 µM	> 100 µM	> 100 µM	> 100 µM	> 100 µM	> 100 µM	> 100 µM		> 100 µM	> 100 µM	> 100 µM	
COc1cc(C2c3cc4c(cc3OC(NNC(N)=S)C2C)OCO4)cc(OC)c1OC (configuration not stated)	0.884 µM	1.37 µM	> 100 µM	> 100 µM	> 31.6 µM	> 100 µM	2.6 µM	> 100 µM	> 100 µM	0.631 µM	> 100 µM	> 57.6 µM	21 µM	> 100 µM			34.7 µM
COC(=O)C1(Cc2ccccc2)Cc2ccccc2C1O (configuration not stated)	> 100 µM	> 100 µM	> 100 µM	> 100 µM	> 100 µM		> 100 µM	> 100 µM	> 100 µM	> 100 µM	> 100 µM	> 100 µM	> 100 µM	> 100 µM	> 100 µM	> 100 µM	> 100 µM
S=C(NCCc1ccccn1)N/N=C(\c1ccccc1)c1ccccn1	> 55.7 µM	> 100 µM	> 100 µM	> 100 µM	> 75.7 µM	> 100 µM	21.7 µM	> 100 µM	> 100 µM	> 100 µM	1.44 µM	> 100 µM		> 78 µM	52.8 µM	> 27.3 µM	0.951 µM
Cc1cc(C)c2c(=O)n(CC(O)CN(Cc3ccccc3)CC(O)Cn3sc4nc(C)cc(C)c4c3=O)sc2n1 (configuration not stated)	61.9 µM	21.3 µM	31.5 µM	36.4 µM	41 µM	33.1 µM	37.4 µM	27.4 µM	40.4 µM	> 100 µM	67.2 µM	29.8 µM	33.5 µM	28.9 µM	33.6 µM	33.4 µM	
Cn1cc(NC(=O)Nc2cc(C(=O)Nc3cc(C(=O)Nc4ccc5cc(S(=O)(=O)O)cc(S(=O)(=O)O)c5c4)n(C)c3)n(C)c2)cc1C(=O)Nc1cc(C(=O)Nc2ccc3cc(S(=O)(=O)O)cc(S(=O)(=O)O)c3c2)n(C)c1	> 100 µM	> 100 µM	> 100 µM	> 100 µM	> 100 µM		> 100 µM	> 100 µM	> 100 µM	> 100 µM	> 100 µM	> 100 µM	> 100 µM	> 100 µM	> 100 µM	> 100 µM	
Cc1n[nH]c(=O)n1C1CC1	> 100 µM	> 100 µM		> 100 µM	> 100 µM		> 100 µM	> 100 µM	> 100 µM	> 100 µM	> 100 µM	> 100 µM	> 100 µM	> 100 µM	> 100 µM	> 100 µM	
O=C(C[C@@H]1CCCN2CCCC[C@H]12)N1c2ccccc2Sc2ccc(Cl)cc21	36.7 µM	26.1 µM	35.5 µM	26.4 µM	39.5 µM		22.8 µM	31.2 µM	38.5 µM	36.8 µM	29.4 µM	31.9 µM	46 µM	33.4 µM	29 µM	29.1 µM	
C/C(=C/CC[C@](C)(OC1OC(CO)C(O)C(O)C1O)[C@H]1CC[C@]2(C)[C@@H]1CC[C@@H]1[C@@]3(C)CC[C@H](O)C(C)(C)[C@@H]3C[C@H](O)[C@]12CO)CO (some centres not stated)	> 100 µM	> 100 µM	> 100 µM	> 100 µM	> 100 µM		> 100 µM	> 100 µM	> 100 µM	> 100 µM	> 100 µM	> 100 µM	> 100 µM	> 100 µM	> 100 µM	> 100 µM	> 100 µM
NC(=O)N/N=C\CC(O)(C(F)(F)Cl)C(F)(F)Cl	> 10 µM	> 10 µM	> 10 µM		> 10 µM	> 10 µM	> 10 µM	> 10 µM	> 10 µM	> 10 µM	> 10 µM	> 10 µM	> 10 µM	> 10 µM	> 10 µM	> 10 µM	> 10 µM
COc1cc(/C=N/NC(=O)c2c(Cl)c(Cl)c(Cl)c(Cl)c2-c2nc3ccc(C(=O)c4ccccc4)cc3[nH]2)ccc1O	> 100 µM	58.1 µM	> 100 µM	> 100 µM	> 100 µM	> 100 µM	> 100 µM	> 100 µM	> 100 µM	61.1 µM	77 µM	> 100 µM	> 100 µM	> 100 µM	> 100 µM	> 100 µM	
COc1ccccc1NC1Oc2cc3c(cc2C(c2cc(OC)c(OC)c(OC)c2)C1C)OCO3 (configuration not stated)	2.99 µM	5.79 µM	> 100 µM	> 100 µM	> 100 µM	> 100 µM	> 100 µM	9.43 µM	> 25.2 µM	3.36 µM	> 33.1 µM		9.92 µM	16.7 µM	7.62 µM	> 82.1 µM	> 30 µM
CCOC(=O)C(=[N+]=[N-])C(=O)CSC#N	> 100 µM	> 100 µM	> 100 µM	> 100 µM	> 100 µM	> 100 µM	> 100 µM	> 100 µM	> 100 µM	> 100 µM	> 100 µM		> 100 µM		> 100 µM	> 100 µM	> 100 µM
COC(=O)CN(CC(=O)NCCNC(=O)OC(C)(C)C)C1CCCCC1N(CC(=O)OC)CC(=O)OC (configuration not stated)	> 100 µM	> 100 µM	> 100 µM	> 100 µM	> 100 µM	> 100 µM	> 100 µM	> 100 µM	> 100 µM	> 100 µM	> 100 µM	> 100 µM	> 100 µM			> 100 µM	> 100 µM
Cc1cccc(N=Nc2c(C)nn(C(=O)CC(=O)Nc3ccc(Cl)cc3)c2C)c1	> 100 µM	> 100 µM	> 100 µM	> 100 µM	> 100 µM	> 100 µM	> 100 µM		> 100 µM	> 100 µM	> 100 µM	> 100 µM	> 100 µM	95.9 µM	> 100 µM	> 100 µM	> 100 µM
Cn1c(-c2ccccc2)cc(-c2ccc3c(c2)OCO3)c1-c1ccsc1	> 100 µM	> 100 µM	> 100 µM	> 100 µM	> 100 µM	> 100 µM	> 100 µM		> 100 µM	> 100 µM	> 100 µM	> 100 µM	> 100 µM	> 100 µM	> 100 µM	> 100 µM	> 100 µM
O=C(NCCCCCCCCNC(=O)Nc1cccc2ccccc12)Nc1cccc2ccccc12	> 100 µM	> 100 µM	> 100 µM	> 100 µM	> 100 µM	> 100 µM	> 100 µM	> 100 µM	> 100 µM	> 100 µM	> 100 µM	> 100 µM		> 100 µM	67.6 µM	> 100 µM	34.7 µM
O=C1NC(=O)C(CCC(=O)c2cccc3ccccc23)C(=O)N1	> 100 µM	> 100 µM		> 100 µM	> 100 µM	> 100 µM	> 100 µM		> 100 µM	> 100 µM	> 100 µM	> 100 µM	> 100 µM	> 100 µM	> 100 µM	> 100 µM	> 100 µM
Nc1ccc(Oc2ccc(C34CC5CC(C3)CC(c3ccc(Oc6ccc(N)cc6C(F)(F)F)cc3)(C5)C4)cc2)c(C(F)(F)F)c1	79.9 µM	37.1 µM	31.1 µM	70.3 µM	64.5 µM	28.8 µM	35.6 µM	58.5 µM	42.6 µM	> 100 µM	54.9 µM	37.7 µM	35.7 µM		25.1 µM	45.6 µM	35.2 µM
CC(C)(C)OC(=O)NC(CC(=O)OCc1ccccc1)C(=O)NC(C)(C)C(N)=O (configuration not stated) (Boc-[ξD](OBn)-[Aib]-NH2)	> 100 µM	> 100 µM	> 100 µM	> 100 µM	> 100 µM	> 100 µM	> 100 µM	> 100 µM	> 100 µM		> 100 µM	> 100 µM	> 100 µM	> 100 µM	> 100 µM	> 100 µM	> 100 µM
Nc1nc(Cl)c(N)c(NCC2(CO)CCC(OCc3ccccc3)C2)n1 (configuration not stated)	> 100 µM	> 100 µM	> 100 µM	> 100 µM	> 100 µM	> 100 µM	> 100 µM	> 100 µM	> 100 µM		> 100 µM	> 100 µM	> 100 µM	> 100 µM	> 100 µM	> 100 µM	81.5 µM
N#Cc1c(-c2ccc([N+](=O)[O-])cc2)c2c([nH]c1=O)-c1ccccc1CCC2	> 100 µM	> 100 µM	> 100 µM	> 100 µM	70.5 µM	> 100 µM	> 100 µM	> 100 µM	> 100 µM	> 100 µM	> 100 µM	> 100 µM	96.2 µM		73.8 µM	> 100 µM	> 100 µM
COCN1C(=O)[C@@H]2C[C@@H](O)CN2C(=O)c2ccccc21	> 100 µM	> 100 µM	> 100 µM	> 100 µM	> 100 µM	> 100 µM	> 100 µM	> 100 µM	> 100 µM	> 100 µM	> 100 µM			> 100 µM	> 100 µM	> 100 µM	> 100 µM
NC(=O)c1ncn(C2C=CC(CP(=O)(O)O)C2)c1N (configuration not stated)	> 100 µM	> 100 µM	> 100 µM	> 100 µM	> 100 µM	> 100 µM	> 100 µM	> 100 µM	> 100 µM	> 100 µM	> 100 µM	> 100 µM	> 100 µM	> 100 µM	> 100 µM	> 100 µM	
CC(C(=O)NCNC(=O)c1ccccc1)C(=O)Nc1ccccc1 (configuration not stated)	> 100 µM	> 100 µM	> 100 µM	> 100 µM	> 100 µM	> 100 µM	> 100 µM	> 100 µM	> 100 µM	> 100 µM	> 100 µM		> 100 µM	> 100 µM	> 100 µM	> 100 µM	
